Test results published in patent US8202856B2 (Merck Serono SA, priority 2007, dated 2012).
pEC50: −log10 of the molar value. Structures can show the parent of a compound that is named as a salt.

Key:
S1P1 receptor = S1P1 receptor (Homo sapiens, UniProt P21453); assay: 35S-GTPγS binding, membranes from CHO cells expressing S1P1; assay type: biochemical; conditions: CHO cell membranes expressing S1P1
Outline: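 Membranes (1–10 μg) from CHO cells expressing the receptor were incubated with compound in 20 mM HEPES pH 7.4, 10 mM MgCl2, 140 mM NaCl, 1.7 μM GDP, saponin and 0.2% BSA. [35S]GTPγS (added at 1.5 nM) was then bound for 60 min at 30 °C. Membrane-bound radioactivity, averaged over triplicates, is expressed relative to S1P activation (n=2).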

S1P3 receptor = S1P3 receptor (Homo sapiens, UniProt Q99500); assay: 35S-GTPγS binding, membranes from CHO cells expressing S1P3; assay type: biochemical; conditions: CHO cell membranes expressing S1P3
S1P3 receptor, sequence (Q99500 whole entry): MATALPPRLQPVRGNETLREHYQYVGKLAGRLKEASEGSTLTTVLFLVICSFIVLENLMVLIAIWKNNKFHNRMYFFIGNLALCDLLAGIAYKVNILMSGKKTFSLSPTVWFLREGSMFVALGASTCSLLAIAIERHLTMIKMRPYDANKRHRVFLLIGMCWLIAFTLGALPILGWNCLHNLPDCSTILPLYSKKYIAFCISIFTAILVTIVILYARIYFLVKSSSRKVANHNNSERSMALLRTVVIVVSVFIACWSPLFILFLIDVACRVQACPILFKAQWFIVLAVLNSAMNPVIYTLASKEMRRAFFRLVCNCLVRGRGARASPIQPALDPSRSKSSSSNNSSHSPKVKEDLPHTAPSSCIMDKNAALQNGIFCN
Procedure: Receptor binding assay: Membranes were prepared from CHO cells expressing S1P1 or S1P3 for use in ligand and 35S-GTPTS binding studies. Cells were suspended in 50 mM TRIS, pH 7.4, 2 mM EDTA, 250 mM Sucrose (buffer A) and 1× Complete protease inhibitor cocktail (Roche), and disrupted at 4° C. by nitrogen decompression using a cell disruption bomb (Parr Instrument). Following centrifugation at 1000 RPM for 10 min at 4° C., the supernatant was suspended in buffer A and centrifuged again at 19000 RPM for 60 min at 4° C. The pellet was then suspended in 10 mM HEPES, pH 7.4, 1 mM EDTA, 250 mM Sucrose (Buffer B), and 1× Complete EDTA-free protease inhibitor cocktail and homogenized using a potter. Membranes were flash frozen in liquid nitrogen and stored at −80° C. [33P]sphingosine 1-phosphate (3000 Ci/mmol; American Radiolabeled Chemicals, Inc.) was added to test compounds in DMSO. Membranes and WGA SPA beads (GE Healthcare) were added to give a final volume of 100 μl in 96-well plates with assay concentrations of […] [33P]sphingosine 1-phosphate (respectively for S1P1 or S1P3), 50 mM HEPES, pH 7.5, 5 mM MgCl2, 100 mM NaCl, 0.4% fatty acid-free BSA, 1-5 μg/well of proteins and 100 μg/well of WGA SPA beads. Binding was performed for 60 min at room temperature on a shaker and bound radioactivity was measured on a PerkinElmer 1450 MicroBeta counter. Specific binding was calculated by subtracting remaining radioactivity in the presence of 1000-fold excess of unlabeled S1P. Binding data were analyzed using the GraphPad Prism program.
Measurements of ^35S-GTPγS Binding: Membranes (1 to 10 μg protein) prepared as described above, were incubated in 96-well Scintiplates (PerkinElmer) with test compounds diluted in DMSO, in 180 μl of 20 mM HEPES, pH 7.4, 10 mM MgCl2, 2 μg/well Saponin, 0.2% fatty acid free BSA (Assay buffer), 140 mM NaCl and 1.7 μM GDP. The assay was initiated with the addition of 20 μl of 1.5 nM [35S]-GTPγS (1100 Ci/mmol; GE Healthcare) in assay buffer. After 60 min incubation at 30° C. on a shaker, plates were centrifuged for 10 min at 2000 RPM. Supernatant was discarded and membrane bound radioactivity was measured on a PerkinElmer 1450 MicroBeta counter. Triplicate samples were averaged and expressed as response relative to S1P activation in absence of compound (n=2).

S1P1 receptor, sequence (P21453 whole entry): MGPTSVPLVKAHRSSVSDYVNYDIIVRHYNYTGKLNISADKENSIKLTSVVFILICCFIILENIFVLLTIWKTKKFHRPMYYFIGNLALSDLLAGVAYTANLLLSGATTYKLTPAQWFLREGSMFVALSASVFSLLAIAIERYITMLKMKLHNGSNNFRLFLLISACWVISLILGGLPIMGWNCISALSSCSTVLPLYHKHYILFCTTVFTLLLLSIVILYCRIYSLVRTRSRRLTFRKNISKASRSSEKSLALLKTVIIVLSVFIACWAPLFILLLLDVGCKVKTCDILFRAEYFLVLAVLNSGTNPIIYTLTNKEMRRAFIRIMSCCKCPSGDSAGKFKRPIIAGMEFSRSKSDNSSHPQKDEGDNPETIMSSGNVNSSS

Row | SMILES | pEC50 (S1P1 receptor) | pEC50 (S1P3 receptor)
1 | Fc1ccccc1-n1nnc(-c2nc(-c3ccncc3)no2)c1-c1ccncc1 [Example 41, 4-[1-(2-fluorophenyl)-4-(3-pyridin-4-yl-1,2,4-oxadiazol-5-yl)-1H-1,2,3-triazol-5-yl]pyridine] | 6.80 | < 4.70
2 | CCc1c(-c2nc(-c3ccccc3F)no2)nnn1-c1ccccc1F [Example 6, 5-[5-Ethyl-1-(2-fluorophenyl)-1H-1,2,3-triazole-4-yl]-3-(2-fluorophenyl)-1,2,4-oxadiazole] | 6.25 | < 4.52
3 | COCc1c(-c2nc(-c3ccc(F)cc3F)no2)nnn1-c1ccccc1F [Example 8, 3-(2,4-Difluorophenyl)-5-[1-(2-fluorophenyl)-5-(methoxymethyl)-1H-1,2,3-triazole-4-yl]-1,2,4-oxadiazole] | 6.13 | < 5.00
4 | NCc1ccc(-c2noc(-c3nnn(-c4ccccc4F)c3-c3ccncc3)n2)cc1 [Example 80, 1-(4-{5-[1-(2-fluorophenyl)-5-pyridin-4-yl-1H-1,2,3-triazol-4-yl]-1,2,4-oxadiazol-3-yl}phenyl)methanamine hydrochloride] | 7.42 | 5.64
5 | O=C(O)C1CN(Cc2ccc(-c3noc(-c4nnn(-c5ccccc5F)c4-c4ccncc4)n3)cc2)C1 [Example 113, 1-(4-{5-[1-(2-fluorophenyl)-5-pyridin-4-yl-1H-1,2,3-triazol-4-yl]-1,2,4-oxadiazol-3-yl}benzyl)azetidine-3-carboxylic acid] | 8.70 | 5.86
6 | Fc1ccccc1-c1noc(-c2nnn(-c3ccccc3F)c2-c2ccccn2)n1 [Example 27, 2-{1-(2-Fluorophenyl)-4-[3-(2-fluorophenyl)-1,2,4-oxadiazole-5-yl]-1H-1,2,3-triazole-5-yl}pyridine] | 6.73 | 5.54
7 | Fc1ccc(F)c(-c2noc(-c3nnn(-c4ccccc4F)c3-c3ccccc3)n2)c1 [Example 12, 3-(2,5-Difluorophenyl)-5-[1-(2-fluorophenyl)-5-phenyl-1H-1,2,3-triazole-4-yl]-1,2,4-oxadiazole] | 8.15 | 4.85
8 | COc1cccc(-c2noc(-c3nnn(-c4ccccc4F)c3-c3ccncc3)n2)c1 [Example 51, 4-{1-(2-fluorophenyl)-4-[3-(3-methoxyphenyl)-1,2,4-oxadiazol-5-yl]-1H-1,2,3-triazol-5-yl}pyridine] | 8.00 | 6.13
9 | Fc1ccccc1-n1nnc(-c2nc(-c3cccc(C(F)(F)F)c3)no2)c1-c1ccccc1 [Example 21, 5-[1-(2-Fluorophenyl)-5-phenyl-1H-1,2,3-triazole-4-yl]-3-[3-(trifluoromethyl)phenyl]-1,2,4-oxadiazole] | 7.39 | < 4.52
10 | COc1ccccc1-c1noc(-c2nnn(-c3ccccc3F)c2-c2ccncc2)n1 [Example 40, 4-{1-(2-fluorophenyl)-4-[3-(2-methoxyphenyl)-1,2,4-oxadiazol-5-yl]-1H-1,2,3-triazol-5-yl}pyridine] | 6.92 | < 4.70
11 | Fc1ccccc1-c1noc(-c2nnn(-c3ccccc3F)c2-c2cccnc2)n1 [Example 25, 3-{1-(2-Fluorophenyl)-4-[3-(2-fluorophenyl)-1,2,4-oxadiazole-5-yl]-1H-1,2,3-triazole-5-yl}pyridine] | 6.57 | < 4.70
12 | Fc1ccc(F)c(-c2noc(-c3nnn(-c4ccccc4F)c3-c3cccnc3)n2)c1 [Example 26, 3-[4-[3-(2,5-Difluorophenyl)-1,2,4-oxadiazole-5-yl]-1-(2-fluorophenyl)-1H-1,2,3-triazole-5-yl]pyridine] | 7.02 | < 4.70
13 | COc1ccc(-c2noc(-c3nnn(-c4ccccc4F)c3-c3ccncc3)n2)cc1 [Example 48, 4-{1-(2-fluorophenyl)-4-[3-(4-methoxyphenyl)-1,2,4-oxadiazol-5-yl]-1H-1,2,3-triazol-5-yl}pyridine] | 6.90 | 4.98
14 | Fc1ccc(F)c(-c2noc(-c3nnn(-c4ccccc4F)c3CN3CCCC3)n2)c1 [Example 92, 3-(2,5-difluorophenyl)-5-[1-(2-fluorophenyl)-5-(pyrrolidin-1-ylmethyl)-1H-1,2,3-triazol-4-yl]-1,2,4-oxadiazole] | 7.04 | < 4.70
15 | Fc1ccccc1-n1nnc(-c2nc(-c3ccccc3)no2)c1-c1ccccc1 [Example 14, 5-[1-(2-Fluorophenyl)-5-phenyl-1H-1,2,3-triazole-4-yl]-3-phenyl-1,2,4-oxadiazole] | 7.42 | 6.40
16 | Fc1ccc(F)c(-c2noc(-c3nnn(-c4ccccc4F)c3C3CCOCC3)n2)c1 [Example 62] | 7.34 | < 4.70
17 | COCc1c(-c2nc(-c3ccccc3F)no2)nnn1-c1ccccc1F | 6.68 | < 4.52
18 | Cc1ccccc1-c1noc(-c2nnn(-c3ccccc3F)c2-c2ccncc2)n1 [Example 121, 4-{1-(2-fluorophenyl)-4-[3-(2-methylphenyl)-1,2,4-oxadiazol-5-yl]-1H-1,2,3-triazol-5-yl}pyridine] | 7.89 | < 4.70
19 | Fc1ccccc1-n1nnc(-c2nc(-c3cccc(Cn4cncn4)c3)no2)c1-c1ccncc1 [Example 61, 4-(1-(2-fluorophenyl)-4-{3-[3-(1H-1,2,4-triazol-1-ylmethyl)phenyl]-1,2,4-oxadiazol-5-yl}-1H-1,2,3-triazol-5-yl)pyridine] | 6.74 | < 4.70
20 | COCCNCc1ccc(-c2noc(-c3nnn(-c4ccccc4F)c3-c3ccncc3)n2)cc1 [Example 114, N-(4-{5-[1-(2-fluorophenyl)-5-pyridin-4-yl-1H-1,2,3-triazol-4-yl]-1,2,4-oxadiazol-3-yl}benzyl)-2-methoxyethanamine] | 7.30 | 5.18
21 | CNCc1ccc(-c2noc(-c3nnn(-c4ccccc4F)c3-c3ccncc3)n2)cc1 [Example 129, 1-(4-{5-[1-(2-fluorophenyl)-5-pyridin-4-yl-1H-1,2,3-triazol-4-yl]-1,2,4-oxadiazol-3-yl}phenyl)-N-methylmethanamine] | 8.00 | 5.34
22 | Fc1ccccc1-c1noc(-c2nnn(-c3ccccc3F)c2-c2ccccc2)n1 [Example 13, 3-(2-Fluorophenyl)-5-[1-(2-fluorophenyl)-5-phenyl-1H-1,2,3-triazole-4-yl]-1,2,4-oxadiazole] | 7.54 | 6.31
23 | Fc1ccc(F)c(-c2noc(-c3nnn(-c4ccccc4F)c3-c3ccncc3)n2)c1 [Example 31, 4-[4-[3-(2,5-Difluorophenyl)-1,2,4-oxadiazole-5-yl]-1-(2-fluorophenyl)-1H-1,2,3-triazole-5-yl]pyridine] | 8.15 | 5.75
24 | CCCCc1c(-c2nc(-c3ccccc3F)no2)nnn1-c1ccccc1F [Example 16, 5-5-[5-Butyl-1-(2-fluorophenyl)-1H-1,2,3-triazole-4-yl]-3-(2-fluorophenyl)-1,2,4-oxadiazole] | 6.80 | 5.13
25 | COCc1c(-c2nc(-c3ccc4[nH]ccc4c3)no2)nnn1-c1ccccc1F [Example 65, 5-{5-[1-(2-fluorophenyl)-5-(methoxymethyl)-1H-1,2,3-triazol-4-yl]-1,2,4-oxadiazol-3-yl}-1H-indole] | 6.92 | < 4.70
